The record followed here is patent US8551510B2, “Bed bug control and repellency” (Bedoukian Research, Inc., priority 2009, dated 2013).

The experiment concerns bed bugs. The experiment can be described thus: Choice test with unconcealed bed bugs on filter paper discs, test compound in acetone vs. acetone only (percent repellency). The experiment is classed as in vivo. The note with it: for percent repellency at 2 hour: 2 hour post-treatment (Table 2). On the procedure:
This test was undertaken employing unconcealed bugs. Two semicircular discs of filter paper, 9 cm in radius treated with 1 ml of solution to wet the entire surface, one treated with an acetone solution of the test compound and one only acetone treated were placed on the lid of a Petri dish. Five replicates of ten (10) bed bugs were release into the center of the lids of the Petri dish with a choice of the test compound treated or only acetone treated substrate. The distribution of bed bugs was recorded at ½, […], 2, 6 and 24 hours post-treatment. Paired t-tests were conducted for each treatment to ascertain whether or not there was a statistically significant difference in the number of bed bugs on the treated vs. untreated discs.

Where [1] appears, read: chemical at 0.5% in acetone on filter paper, 0.5 hr post-treatment, read-out: percent repellency at 0.5 hr.
Setting [2] is: chemical at 0.5% in acetone on filter paper, 1 hr post-treatment, read-out: percent repellency at 1 hr.
The mark [3] stands for this setting: chemical at 0.5% in acetone on filter paper, 6 hr post-treatment, read-out: percent repellency at 6 hr.
Where [4] appears, read: chemical at 0.5% in acetone on filter paper, 24 hr post-treatment, read-out: percent repellency at 24 hr.
[5] abbreviates: chemical at 0.5%, average of 0.5, 1, 6 and 24 hr, read-out: percent repellency, Average.
The mark [6] stands for this setting: chemical at 0.2% in acetone on filter paper, 0.5 hr post-treatment, read-out: percent repellency at 0.5 hr.
Where [7] appears, read: chemical at 0.2% in acetone on filter paper, 1 hr post-treatment, read-out: percent repellency at 1 hr.
The mark [8] stands for this setting: chemical at 0.2% in acetone on filter paper, 6 hr post-treatment, read-out: percent repellency at 6 hr.
Setting [9] is: chemical at 0.2% in acetone on filter paper, 24 hr post-treatment, read-out: percent repellency at 24 hr.
[10] abbreviates: chemical at 0.2%, average of 0.5, 1, 6 and 24 hr, read-out: percent repellency, Average.
Setting [11] is: 0.5 h, read-out: percent repellency at 0.5 hr.
Where [12] appears, read: 1 h, read-out: percent repellency at 1 hr.
Setting [13] is: 6 h, read-out: percent repellency at 6 hr.
[14] abbreviates: 24 h, read-out: percent repellency at 24 hr.
Setting [15] is: read-out: percent repellency, Average.

Where two headings read alike, the source gives them in different places.

In the case of `CCCCCC1C(=O)CCC1CC(=O)OCC` (centres unmarked) [Ethyl dihydrojasmonate, ethyl 2-(3-oxo-2-pentylcyclopentyl)acetate], the “percent repellency at 2 hour” value (chemical at 0.2%) was found to be 90%.

As to `CCCCCC1C(=O)CCC1CC(=O)OCCC` (centres unmarked) [Propyl dihydrojasmonate, propyl 2-(3-oxo-2-pentylcyclopentyl)acetate], under “chemical at 0.2%”, the “percent repellency at 2 hour” value came to 78%.

As to `CCCCCCCCCCCC(C)=O` [Methyl undecyl ketone, 2-tridecanone], the pest or weed control at 0.5 % runs as follows: under setting [1], 100%; under setting [2], 100%; under setting [3], 100%; under setting [4], 100%; under setting [5], 100%.

Consider `O=C1CCC/C=C\CCCCCCCCCC1` [Cyclohexadec-5-ene-1-one, (5Z) cyclohexadec-5-ene-1-one], for which the pest or weed control at 0.1 % by setting is: (chemical at 0.1% in acetone on filter paper, 0.5 hr post-treatment, read-out: percent repellency at 0.5 hr) 94%; (chemical at 0.1% in acetone on filter paper, 1 hr post-treatment, read-out: percent repellency at 1 hr) 94%; (chemical at 0.1% in acetone on filter paper, 6 hr post-treatment, read-out: percent repellency at 6 hr) 100%; (chemical at 0.1% in acetone on filter paper, 24 hr post-treatment, read-out: percent repellency at 24 hr) 100%; (chemical at 0.1%, average of 0.5, 1, 6 and 24 hr, read-out: percent repellency, Average) 97%.

`C=C(C)C1CCC2=CC(=O)CC(C)C2(C)C1` (centres unmarked) [Nootkatone, 4,4a-dimethyl-6-prop-1-en-2-yl-3,4,5,6,7,8-hexahydronaphthalen-2-one]: for the setting “chemical at 0.1%”, the “percent repellency at 2 hour” value worked out at 60%. Also, the pest or weed control at 0.5 % by setting is: under setting [1], 100%; under setting [2], 100%; under setting [3], 100%; under setting [4], 100%; under setting [5], 100%.

In the case of `CCCCCC1C(=O)CCC1CC(=O)OC` (centres unmarked) [Methyl dihydrojasmonate, methyl 2-(3-oxo-2-pentylcyclopentyl)acetate], the pest or weed control at 0.2 % under setting [6] was 86%; the pest or weed control at 0.2 % under setting [7] came out at 96%; the pest or weed control at 0.2 % under setting [8] was determined as 94%; the pest or weed control at 0.2 % under setting [9] stood at 92%; the pest or weed control at 0.2 % under setting [10] came out at 92%. The “percent repellency at 2 hour” value (chemical at 0.2%) amounted to 98%.

As for `O=C1CCCC1C1CCCC1` (centres unmarked) [2-Cyclopentylcyclopentanone, 2-cyclopentylcyclopentanone], the pest or weed control at 0.5 % is, setting by setting: under setting [1], 90%; under setting [2], 90%; under setting [3], 76%; under setting [4], 70%; under setting [5], 81%.

Turning to `CC(C)CCCC(C)CCC1CCCC1=O` (centres unmarked) [Tetrahydroapritone], the “percent repellency at 2 hour” value (chemical at 0.2%) stood at 82%.

With `CC(=O)CCC=C(C)CCC=C(C)C` [Geranylacetone, 6,10-dimethyl-5,9-undecadien-2-one], the pest or weed control at 0.5 % reads like this: under setting [1], 100%; under setting [2], 100%; under setting [3], 100%; under setting [4], 100%; under setting [5], 100%.

On to `CC(=O)C(C)=CC1C(C)=CCCC1(C)C` (stereo not drawn) [Alpha Isomethylionone, 3-methyl-4-(2,6,6-trimethyl-2-cyclohexen-1-yl)-3-buten-2-one], for which the pest or weed control at 0.5 % runs as follows: under setting [1], 100%; under setting [2], 100%; under setting [3], 100%; under setting [4], 84%; under setting [5], 96%.

Regarding `CCC(C)CCCC(C)CCC1CCCC1=O` (centres unmarked) [Tetrahydro methyl apritone, 2-(3,7-dimethynonyl)cyclopentanone], the “percent repellency at 2 hour” value (chemical at 0.2%) is given as 88%.

In the case of `CCCCCC1C(=O)CCC1CC(=O)OCC=C(C)C` (centres unmarked) [Prenyl dihydrojasmonate, 3-methylbut-2-enyl 2-(3-oxo-2-pentylcyclopentyl)acetate], the “percent repellency at 2 hour” value (chemical at 1.0%) was 82%.

Take `CCCCCCC=CC(C)=O` [3-Decen-2-one]: the pest or weed control at 0.5 % by setting is: under setting [1], 82%; under setting [2], 84%; under setting [3], 78%; under setting [4], 76%; under setting [5], 80%.

As for `CC1=CCC(C(C)CC2CCCC2=O)CC1` (centres unmarked) [Nectaryl ™, 2-(2-(4-methyl-3-cyclohexen-1-yl)propyl) cyclopentanone], the pest or weed control at 0.5 % is 87.8% under setting [1]; 95.9% under setting [2]; 100% under setting [3]; 100% under setting [4]; 95.9% under setting [5].

On to `CCC(C)=CCCC(C)=CCC1CCCC1=O` (centres unmarked) [Methyl Apritone, 2-(3,7-dimethyl-2,6-nonadienyl)cyclopentanone], for which the pest or weed control at 0.2 % worked out at 100% under setting [6]; 100% under setting [7]; 100% under setting [8]; 100% under setting [9]; 100% under setting [10]. Besides, where the note is “chemical at 0.2%”, the “percent repellency at 2 hour” value amounted to 90%.

With `CCCCCCCCCCC(C)=O` [Methyl decyl ketone, 2-dodecanone], the pest or weed control at 0.5 % runs as follows: under setting [1], 100%; under setting [2], 100%; under setting [3], 100%; under setting [4], 100%; under setting [5], 100%.

Consider `CC(=O)C=CC1C(C)=CCCC1(C)C` (stereo not drawn) [Alpha Ionone, 4-(2,6,6-trimethyl-2-cyclohexenyl)-3-buten-2-one], for which the pest or weed control at 0.5 % by setting is: under setting [11], 100%; under setting [12], 100%; under setting [13], 100%; under setting [14], 84%; under setting [15], 96%.

For the molecule `CC(C)=CCCC(C)=CCC1CCCC1=O` (centres unmarked) [2-Geranylcyclopentanone (Apritone), 2-(3,7-dimethylocta-2,6-dienyl)cyclopentan-1-one], the pest or weed control at 0.5 % is 100% under setting [1]; 100% under setting [2]; 100% under setting [3]; 100% under setting [4]; 100% under setting [5].

Regarding `CCCCOC(=O)CCC(C)=O` [Butyl levulinate, reference compound], the pest or weed control at 0.2 % came out at 64% under setting [6]; 68% under setting [7]; 62% under setting [8]; 60% under setting [9]; 64% under setting [10].

In the case of `CCCCCC1CC(=O)C=C(C)C1C(=O)OCC` (centres unmarked) [ethyl 2-methyl-4-oxo-6-pentylcyclohec-2-enecarboxylate], the “percent repellency at 2 hour” value (chemical at 0.2%) was found to be 62%.

As to `CCCCCC=CCC1CCCC1=O` (centres unmarked) [2-Octenylcyclopentanone, 2-(2-octen-1-yl)cyclopentanone], the pest or weed control at 0.5 % reads like this: under setting [1], 100%; under setting [2], 100%; under setting [3], 100%; under setting [4], 100%; under setting [5], 100%.

As for `CC1(C)C2CCC3(C2)C1C(=O)CCC3(C)C` (centres unmarked) [Isolongifolanone, 2,2,7,7-tetramethyltricyclo[6.2.1.01,6]undecan-5-one], the pest or weed control at 0.5 % amounted to 90% under setting [1]; 88% under setting [2]; 98% under setting [3]; 98% under setting [4]; 93% under setting [5].

For the molecule `CCC(=O)/C(C)=C/C1C(C)CC=CC1(C)C` (centres unmarked) [Dimethylionone, (E)-2-methyl-1-(2,2,6-trimethyl-1-cyclohex-3-enyl)pent-1-en-3-one], the pest or weed control at 0.5 % was found to be 90% under setting [1]; 96% under setting [2]; 96% under setting [3]; 92% under setting [4]; 93.5% under setting [5].

Turning to `CCCCCCCCCC(C)=O` [Methyl nonyl ketone, methyl nonyl ketone], the pest or weed control at 0.5 % stood at 85.7% under setting [11]; 84% under setting [12]; 80% under setting [13]; 74% under setting [14]; 80.9% under setting [15].

`CCCCCCCCC(=O)C(C)=O` [2,3-Undecanedione, reference compound]: the pest or weed control at 0.5 % amounted to 90% under setting [1]; 60% under setting [2]; 60% under setting [3]; 90% under setting [4]; 75% under setting [5].
